Starred links: 1 amine or outer side, 2 acyl side, 3 side chain; linkers in the order of their positions; H or OH if unused. Positions of bridges follow the written chain, without caps; N, C: chain ends. Non-standard residues stand in square brackets, D forms with d. Residues, ends and D or L forms follow the SMILES beside them. Bip(4'-COOH) = N[C@@H](Cc1ccc(-c2ccc(C(=O)O)cc2)cc1)C(=O)O; Phe(4-(4-pyridyl)) = N[C@@H](Cc1ccc(-c2ccncc2)cc1)C(=O)O; Phe(4-(3-Py)) = N[C@@H](Cc1ccc(-c2cccnc2)cc1)C(=O)O; Pro(trans-4-Ph) = O=C(O)[C@@H]1C[C@@H](c2ccccc2)CN1; Pro(cis-4-Ph) = O=C(O)[C@@H]1C[C@H](c2ccccc2)CN1; Ala(morpholin-4-yl) = N[C@@H](CN1CCOCC1)C(=O)O; Asp(3,3-Me2) = CC(C)(C(=O)O)[C@H](N)C(=O)O; Bip = N[C@@H](Cc1ccc(-c2ccccc2)cc1)C(=O)O; Val(3-OH) = CC(C)(O)[C@H](N)C(=O)O; X82 = C[C@@]1(C(=O)[*:2])CCN1[*:1]; 3Pal = N[C@@H](Cc1cccnc1)C(=O)O; d(αMeP) = C[C@]1(C(=O)O)CCCN1; Sar = CNCC(=O)O

Drawing on US20250145665A1, “MACROCYCLIC PEPTIDES USEFUL AS MODULATORS OF TNF ALPHA” (Bristol-Myers Squibb Company, priority 2023, published 2025), this text covers IC50 for 16 molecules.

Chain of TNFα (P01375 77-233 limits assumed): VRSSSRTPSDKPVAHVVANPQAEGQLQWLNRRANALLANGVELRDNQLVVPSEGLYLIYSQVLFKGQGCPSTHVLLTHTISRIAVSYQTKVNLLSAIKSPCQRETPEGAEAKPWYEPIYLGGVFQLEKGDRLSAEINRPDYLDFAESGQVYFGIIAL

The assay addresses TNFα (Homo sapiens, UniProt P01375). Kind of assay: TNF-Induced HEK-Blue Assay. The format is cell-based. The note with it: HEK-Blue-CD40L cells, NF-kB-driven secreted alkaline phosphatase reporter; TNFα 0.5 ng/ml; 18 h; read-out: TNF induced HEK-Blue assay IC50 value.
Take `CC(C)[C@@H]1NC(=O)[C@H](CCCNC(=N)N)NC(=O)[C@H](C(C)C)NC(=O)[C@@H]2CCCN2C(=O)[C@H](C(C)C)NC(=O)[C@H](CCCNC(=N)N)NC(=O)[C@H](CC(=O)O)NC(=O)[C@@H]2CCCN2C(=O)CN(C)C(=O)[C@H](Cc2ccc(-c3ccc(C(=O)O)cc3)cc2)NC(=O)[C@H](Cc2ccc(-c3ccccc3)cc2)NC(=O)[C@H](CN2CCOCC2)NC(=O)CSC[C@@H](C(=O)NCC(N)=O)NC1=O` [Example 90] ({CH2CO}-[Ala(morpholin-4-yl)][Bip][Bip(4'-COOH)][Sar]PDRVPVRVCG-NH2; thioether N-13): the half-maximal inhibitory concentration (IC50) was 50 to 200 nM.

As to `CC(C)[C@@H]1NC(=O)[C@H](CCCNC(=N)N)NC(=O)[C@H](C(C)C)NC(=O)[C@@H]2CCCN2C(=O)[C@H](C(C)C)NC(=O)[C@H](CCCNC(=N)N)NC(=O)[C@H](CC(=O)O)NC(=O)[C@@H]2CCCN2C(=O)CN(C)C(=O)[C@H](Cc2ccc(-c3ccncc3)cc2)NC(=O)[C@H](Cc2ccc(-c3ccccc3)cc2)NC(=O)[C@H](CN2CCOCC2)NC(=O)CSC[C@@H](C(=O)NCC(N)=O)NC1=O` [Example 91] ({CH2CO}-[Ala(morpholin-4-yl)][Bip][Phe(4-(4-pyridyl))][Sar]PDRVPVRVCG-NH2; thioether N-13), the IC50 fell in the range of 200 to 2000 nM.

On to `CC(C)[C@@H]1NC(=O)[C@H](CCCNC(=N)N)NC(=O)[C@H](C(C)C)NC(=O)[C@@H]2CCCN2C(=O)[C@H](C(C)C)NC(=O)[C@H](CCCNC(=N)N)NC(=O)[C@H](CC(=O)O)NC(=O)[C@@H]2CCCN2C(=O)CN(C)C(=O)[C@H](Cc2ccc(-c3cccnc3)cc2)NC(=O)[C@H](Cc2ccc(-c3ccccc3)cc2)NC(=O)[C@H](CN2CCOCC2)NC(=O)CSC[C@@H](C(=O)NCC(N)=O)NC1=O` [Example 92] ({CH2CO}-[Ala(morpholin-4-yl)][Bip][Phe(4-(3-Py))][Sar]PDRVPVRVCG-NH2; thioether N-13), for which the IC50 lay within 200 to 2000 nM.

As to `CC(C)C[C@@H]1NC(=O)[C@H](Cc2ccc(O)cc2)NC(=O)[C@H](C(C)C)NC(=O)[C@]2(C)CCN2C(=O)[C@H](C(C)C)NC(=O)[C@H](CCCNC(=N)N)NC(=O)[C@H](CC(=O)O)NC(=O)[C@H](Cc2ccc(O)cc2)NC(=O)CN(C)C(=O)[C@H](Cc2ccc(-c3ccccc3)cc2)NC(=O)[C@H](Cc2ccc(-c3ccccc3)cc2)NC(=O)[C@H](CN2CCOCC2)NC(=O)CSC[C@@H](C(=O)NCC(N)=O)NC1=O` [Example 93] ({CH2CO}-[Ala(morpholin-4-yl)][Bip][Bip][Sar]YDRV[X82]VYLCG-NH2; thioether N-13), the IC50 fell in the range of 50 to 200 nM.

Consider `CC(C)C[C@@H]1NC(=O)[C@H](Cc2ccc(O)cc2)NC(=O)[C@H](C(C)C)NC(=O)[C@@H]2CCCN2C(=O)[C@H](C(C)C)NC(=O)[C@H](CCCNC(=N)N)NC(=O)[C@H](CC(=O)O)NC(=O)[C@@H]2C[C@H](c3ccccc3)CN2C(=O)CN(C)C(=O)[C@H](Cc2ccc(-c3ccccc3)cc2)NC(=O)[C@H](Cc2ccc(-c3ccccc3)cc2)NC(=O)[C@H](CN2CCOCC2)NC(=O)CSC[C@@H](C(=O)NCC(N)=O)NC1=O` [Example 94] ({CH2CO}-[Ala(morpholin-4-yl)][Bip][Bip][Sar][Pro(cis-4-Ph)]DRVPVYLCG-NH2; thioether N-13), for which the half-inhibitory concentration (IC50) fell in the range of 50 to 200 nM.

In the case of `CC(C)C[C@@H]1NC(=O)[C@H](Cc2ccc(O)cc2)NC(=O)[C@H](C(C)C)NC(=O)[C@@H]2CCCN2C(=O)[C@H](C(C)C)NC(=O)[C@H](CCCNC(=N)N)NC(=O)[C@H](CC(=O)O)NC(=O)[C@@H]2C[C@@H](c3ccccc3)CN2C(=O)CN(C)C(=O)[C@H](Cc2ccc(-c3ccccc3)cc2)NC(=O)[C@H](Cc2ccc(-c3ccccc3)cc2)NC(=O)[C@H](CN2CCOCC2)NC(=O)CSC[C@@H](C(=O)NCC(N)=O)NC1=O` [Example 95] ({CH2CO}-[Ala(morpholin-4-yl)][Bip][Bip][Sar][Pro(trans-4-Ph)]DRVPVYLCG-NH2; thioether N-13), the IC50 fell in the range of 200 to 2000 nM.

As for `CC(C)C[C@@H]1NC(=O)[C@H](CCCNC(=N)N)NC(=O)[C@H](C(C)C)NC(=O)[C@@H]2CCCN2C(=O)[C@H](C(C)C)NC(=O)[C@H](CCCNC(=N)N)NC(=O)[C@H](CC(=O)O)NC(=O)[C@@H]2C[C@H](c3ccccc3)CN2C(=O)CN(C)C(=O)[C@H](Cc2ccc(-c3ccccc3)cc2)NC(=O)[C@H](Cc2ccc(-c3ccccc3)cc2)NC(=O)[C@H](CN2CCOCC2)NC(=O)CSC[C@@H](C(=O)NCC(N)=O)NC1=O` [Example 96] ({CH2CO}-[Ala(morpholin-4-yl)][Bip][Bip][Sar][Pro(cis-4-Ph)]DRVPVRLCG-NH2; thioether N-13), the IC50 lay within 50 to 200 nM.

Turning to `CC(C)C[C@@H]1NC(=O)[C@H](CCCNC(=N)N)NC(=O)[C@H](C(C)C)NC(=O)[C@@H]2CCCN2C(=O)[C@H](C(C)C)NC(=O)[C@H](CCCNC(=N)N)NC(=O)[C@H](CC(=O)O)NC(=O)[C@@H]2C[C@@H](c3ccccc3)CN2C(=O)CN(C)C(=O)[C@H](Cc2ccc(-c3ccccc3)cc2)NC(=O)[C@H](Cc2ccc(-c3ccccc3)cc2)NC(=O)[C@H](CN2CCOCC2)NC(=O)CSC[C@@H](C(=O)NCC(N)=O)NC1=O` [Example 97] ({CH2CO}-[Ala(morpholin-4-yl)][Bip][Bip][Sar][Pro(trans-4-Ph)]DRVPVRLCG-NH2; thioether N-13), the IC50 fell in the range of 50 to 200 nM.

For `CC(C)C[C@@H]1NC(=O)[C@H](Cc2ccc(O)cc2)NC(=O)[C@H](C(C)C)NC(=O)[C@@H]2CCCN2C(=O)[C@H](C(C)C)NC(=O)[C@@H](CCCNC(=N)N)NC(=O)[C@H](CC(=O)O)NC(=O)[C@@H]2C[C@H](c3ccccc3)CN2C(=O)CN(C)C(=O)[C@H](Cc2ccc(-c3ccccc3)cc2)NC(=O)[C@H](Cc2ccc(-c3ccccc3)cc2)NC(=O)[C@H](CN2CCOCC2)NC(=O)CSC[C@@H](C(=O)NCC(N)=O)NC1=O` [Example 98] ({CH2CO}-[Ala(morpholin-4-yl)][Bip][Bip][Sar][Pro(cis-4-Ph)]D[dR]VPVYLCG-NH2; thioether N-13), the IC50 lay in the range of 50 to 200 nM.

For `CC(C)C[C@@H]1NC(=O)[C@H](Cc2ccc(O)cc2)NC(=O)[C@H](C(C)C)NC(=O)[C@@H]2CCCN2C(=O)[C@H](C(C)C)NC(=O)[C@@H](CCCNC(=N)N)NC(=O)[C@H](CC(=O)O)NC(=O)[C@@H]2C[C@@H](c3ccccc3)CN2C(=O)CN(C)C(=O)[C@H](Cc2ccc(-c3ccccc3)cc2)NC(=O)[C@H](Cc2ccc(-c3ccccc3)cc2)NC(=O)[C@H](CN2CCOCC2)NC(=O)CSC[C@@H](C(=O)NCC(N)=O)NC1=O` [Example 99] ({CH2CO}-[Ala(morpholin-4-yl)][Bip][Bip][Sar][Pro(trans-4-Ph)]D[dR]VPVYLCG-NH2; thioether N-13), the IC50 is 200 to 2000 nM.

As for `CC(C)C[C@@H]1NC(=O)[C@H](Cc2ccc(O)cc2)NC(=O)[C@H](C(C)C)NC(=O)[C@@H]2CCCN2C(=O)[C@H](C(C)C)NC(=O)[C@H](CCCNC(=N)N)NC(=O)[C@H](C(C)(C)C(=O)O)NC(=O)[C@H](Cc2ccc(O)cc2)NC(=O)CN(C)C(=O)[C@H](Cc2ccc(-c3ccccc3)cc2)NC(=O)[C@H](Cc2ccc(-c3ccccc3)cc2)NC(=O)[C@H](CN2CCOCC2)NC(=O)CSC[C@@H](C(=O)NCC(N)=O)NC1=O` [Example 100] ({CH2CO}-[Ala(morpholin-4-yl)][Bip][Bip][Sar]Y[Asp(3,3-Me2)]RVPVYLCG-NH2; thioether N-13), the IC50 was 200 to 2000 nM.

With `CC(C)C[C@@H]1NC(=O)[C@H](Cc2ccc(O)cc2)NC(=O)[C@H](C(C)C)NC(=O)[C@@H]2CCCN2C(=O)[C@H](C(C)C)NC(=O)[C@H](CCCNC(=N)N)NC(=O)[C@H](CC(=O)O)NC(=O)[C@@]2(C)CCCN2C(=O)CN(C)C(=O)[C@H](Cc2ccc(-c3ccccc3)cc2)NC(=O)[C@H](Cc2ccc(-c3ccccc3)cc2)NC(=O)[C@H](CN2CCOCC2)NC(=O)CSC[C@@H](C(=O)NCC(N)=O)NC1=O` [Example 101] ({CH2CO}-[Ala(morpholin-4-yl)][Bip][Bip][Sar][d(αMeP)]DRVPVYLCG-NH2; thioether N-13), the half-inhibitory concentration (IC50) lay within 50 to 200 nM.

As for `CC(C)C[C@@H]1NC(=O)[C@H](Cc2ccc(O)cc2)NC(=O)[C@H](C(C)C)NC(=O)[C@@H]2CCCN2C(=O)[C@H](C(C)C)NC(=O)[C@@H](CCCNC(=N)N)NC(=O)[C@H](CC(=O)O)NC(=O)[C@@]2(C)CCCN2C(=O)CN(C)C(=O)[C@H](Cc2ccc(-c3ccccc3)cc2)NC(=O)[C@H](Cc2ccc(-c3ccccc3)cc2)NC(=O)[C@H](CN2CCOCC2)NC(=O)CSC[C@@H](C(=O)NCC(N)=O)NC1=O` [Example 102] ({CH2CO}-[Ala(morpholin-4-yl)][Bip][Bip][Sar][d(αMeP)]D[dR]VPVYLCG-NH2; thioether N-13), the IC50 lay within 200 to 2000 nM.

`CC(C)C[C@@H]1NC(=O)[C@H](CCCNC(=N)N)NC(=O)[C@H](C(C)C)NC(=O)[C@@H]2CCCN2C(=O)[C@H](C(C)C)NC(=O)[C@@H](CCCNC(=N)N)NC(=O)[C@H](CC(=O)O)NC(=O)[C@@]2(C)CCCN2C(=O)CN(C)C(=O)[C@H](Cc2ccc(-c3ccccc3)cc2)NC(=O)[C@H](Cc2ccc(-c3ccccc3)cc2)NC(=O)[C@H](CN2CCOCC2)NC(=O)CSC[C@@H](C(=O)NCC(N)=O)NC1=O` [Example 103] ({CH2CO}-[Ala(morpholin-4-yl)][Bip][Bip][Sar][d(αMeP)]D[dR]VPVRLCG-NH2; thioether N-13): the IC50 is 200 to 2000 nM.

As for `CC(C)C[C@@H]1NC(=O)[C@H](CCCNC(=N)N)NC(=O)[C@H](Cc2ccccc2)NC(=O)[C@@H]2CCCN2C(=O)[C@H](C(C)C)NC(=O)[C@@H](CCCNC(=N)N)NC(=O)[C@H](CC(=O)O)NC(=O)[C@@H]2CCCN2C(=O)CN(C)C(=O)[C@H](Cc2ccc(-c3ccccc3)cc2)NC(=O)[C@H](Cc2ccc(-c3ccccc3)cc2)NC(=O)[C@H](CN2CCOCC2)NC(=O)CSC[C@@H](C(=O)NCC(N)=O)NC1=O` [Example 104] ({CH2CO}-[Ala(morpholin-4-yl)][Bip][Bip][Sar]PD[dR]VPFRLCG-NH2; thioether N-13), the IC50 lay in the range of 200 to 2000 nM.

On to `CC(C)C[C@@H]1NC(=O)[C@H](Cc2ccc(O)cc2)NC(=O)[C@H](C(C)C)NC(=O)[C@H](Cc2cccnc2)NC(=O)[C@H](C(C)C)NC(=O)[C@H](CCCNC(=N)N)NC(=O)[C@H](CC(=O)O)NC(=O)[C@H](Cc2ccc(O)cc2)NC(=O)CN(C)C(=O)[C@H](Cc2ccc(-c3ccccc3)cc2)NC(=O)[C@H](Cc2ccc(-c3ccccc3)cc2)NC(=O)[C@H](C(C)(C)O)NC(=O)CSC[C@@H](C(=O)NCC(N)=O)NC1=O` [Example 106] ({CH2CO}-[Val(3-OH)][Bip][Bip][Sar]YDRV[3Pal]VYLCG-NH2; thioether N-13), for which the half-inhibitory concentration (IC50) is 50 to 200 nM.
